Laboratory results as given in article PMC5829821, “Mmf1p Couples Amino Acid Metabolism to Mitochondrial DNA Maintenance in Saccharomyces cerevisiae” (mBio, 2018).

Legend:
Type in all cases: biochemical
RidA = biological target: T1, RidA (Salmonella enterica, UniProt Q7CP78); assay: coupled: 2AA generated by Ilv1p([…]-576) from L-serine, pyruvate at A230; conditions: 50 mM CHES pH 9.5, 0.6 µM Ilv1p, 1.3 µM RidA
T1 construct: purified RidA, preparation described in earlier work
T1 sequence (Q7CP78 1-128): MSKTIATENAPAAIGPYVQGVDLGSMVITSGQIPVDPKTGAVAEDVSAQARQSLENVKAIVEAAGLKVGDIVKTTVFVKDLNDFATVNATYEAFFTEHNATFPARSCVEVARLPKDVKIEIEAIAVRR

Mmf1p(21−147) = biological target: T2, Mmf1p(21−147) (Saccharomyces cerevisiae, UniProt P40185); assay: as above; conditions: 50 mM CHES pH 9.5, 0.6 µM Ilv1p, 1.3 µM Mmf1p
T2 construct: gene MMF1
T2 sequence (P40185 21-145): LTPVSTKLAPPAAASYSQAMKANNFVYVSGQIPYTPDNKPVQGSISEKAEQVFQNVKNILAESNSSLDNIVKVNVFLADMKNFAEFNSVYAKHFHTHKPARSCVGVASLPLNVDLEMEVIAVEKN

Ilv1p(46−576) [1] = biological target: T3, Ilv1p(46−576) (Saccharomyces cerevisiae, UniProt P00927); assay: pyruvate formation at A230, Michaelis-Menten fit; conditions: 50 mM potassium phosphate pH 8
T3 construct: gene ILV1
T3 sequence (P00927 46-576): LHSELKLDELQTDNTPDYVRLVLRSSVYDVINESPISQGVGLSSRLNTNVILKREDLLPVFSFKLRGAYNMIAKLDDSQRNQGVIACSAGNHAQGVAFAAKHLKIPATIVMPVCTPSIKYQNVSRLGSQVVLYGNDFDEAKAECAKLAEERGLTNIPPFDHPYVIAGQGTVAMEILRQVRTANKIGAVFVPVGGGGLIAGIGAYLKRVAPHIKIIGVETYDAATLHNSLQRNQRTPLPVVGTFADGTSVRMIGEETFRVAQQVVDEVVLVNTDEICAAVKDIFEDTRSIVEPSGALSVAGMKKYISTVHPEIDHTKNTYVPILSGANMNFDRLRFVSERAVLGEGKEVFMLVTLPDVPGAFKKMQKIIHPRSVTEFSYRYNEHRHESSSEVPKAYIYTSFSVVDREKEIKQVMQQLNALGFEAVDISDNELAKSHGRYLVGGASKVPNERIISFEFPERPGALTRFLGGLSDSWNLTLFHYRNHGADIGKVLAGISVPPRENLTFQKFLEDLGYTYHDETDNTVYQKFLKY

Ilv1p(46−576) [2] = biological target: T3, Ilv1p(46−576); conditions: 120 mM L-serine, 50 mM potassium phosphate pH 8; allosteric

SMILES: C=C(N)C(=O)O [2-aminoacrylate]
- coupled: 2AA generated by Ilv1p(46-576) from L-serine, pyruvate at A230 (RidA): 2AA-hydrolyzing activity of Mmf1p was indistinguishable from that of the well-characterized RidA enzyme
- coupled: 2AA generated by Ilv1p(46-576) from L-serine, pyruvate at A230 (Mmf1p(21−147)): released 2AA, which Mmf1p used as a substrate

SMILES: N[C@@H](CO)C(=O)O [L-serine]
- pyruvate formation at A230, Michaelis-Menten fit (Ilv1p(46−576) [1]): In vitro, Ilv1p dehydrated serine and released 2AA

SMILES: CC[C@H](C)[C@H](N)C(=O)O [isoleucine]
- inhibition at 3.3 mM (Ilv1p(46−576) [2]): insensitive to isoleucine concentrations that completely inhibited the wild-type enzyme
